Laboratory results taken from US20030113352A1, “Neutralization of stratum corneum to treat hyperkeratotic skin lesions” (The Regents of the University of California, priority 2001, published 2003).
Values belong to the compound of their own block, whether it stands above or below them.

Experiments:
hairless mice [1] = experiment: Skin surface pH after topical treatment or buffer exposure; type: in vivo, hairless mice (Skh1/Hr)
Method: (§2) The mice were anesthetized with chloral hydrate (Morton Grove Pharmaceuticals, Morton Grove, Ill., USA). After 3 hours immersion at 37° C., the mice were removed, and the remaining buffer was gently blotted off. After 15 minutes, barrier function was determined by measurement of transepidermal water loss(TEWL) with an electrolytic water analyzer (MEECO®, Warrington, Pa.). Surface pH was measured with a flat, glass surface electrode from Mettler-Toledo (Giessen, Germany), attached to a pH meter (Skin pH Meter PH 900, Courage& Khazaka, Cologne, Germany). Individually tested sites were covered with Hilltop Chambers (HtC, nominal volume 200 mL), which were reapplied following each indvidual measurement.

hairless mice [2] = experiment: Permeability barrier function by transepidermal water loss (TEWL); type: in vivo, hairless mice (Skh1/Hr)
Method: as §2

hairless mice [3] = experiment: Stratum corneum integrity: TEWL after sequential tape strippings; type: in vivo, hairless mice (Skh1/Hr)
Method: After 15 minutes, barrier function was determined by measurement of transepidermal water loss(TEWL) with an electrolytic water analyzer (MEECO®, Warrington, Pa.). […] Individually tested sites were covered with Hilltop Chambers (HtC, nominal volume 200 mL), which were reapplied following each indvidual measurement.
(§3) The stratum corneum was removed by several strippings with adhesive tape (Tesatape, Beiersdorf, Germany) inducing an increase in TEWL levels above baseline (from 2-5 to approximately 10-15 g/m^2/h). Two sites were prepared on each animal, and TEWL and surface pH were measured at 0, 2, 5 and 24 hrs following the stripping and the applications of inhibitors.

hairless mice [4] = experiment: Stratum corneum cohesion: protein removed per D-Squame stripping; type: in vivo, hairless mice (Skh1/Hr)
Method: Before stripping the stratum corneum, the skin surface was cleaned with a single ethanol wipe. D-Squame tapes then were placed sequentially to the test areas for about 3 sec each, removed with forceps, and stored in glass scintillation vials at 5° C.
The amount of protein removed per D-Squame was measured, by a modification of the method of Dreher, F., et al., Acta Derm. […] The protein content per stripping was determined with the Bio-Rad protein assay kit. […] Each tape was incubated with 1 M NaOH for 1 hour at 37° C. in an incubator shaker at 80 rpm, and neutralized thereafter with 1 mL of 1 M HCl in the scintillation vials. Subsequently, 0.2 mL of this solution was incubated in 0.6 ml distilled water plus 0.2 mL of the Bio-Rad protein dye for 5 minutes in borosililate tubes. […] An empty D-Squame tape, as well as distilled water incubated with Bio-Rad dye, served as negative controls. The amount of calculated protein was then normalized to skin surface area (μg/cm^2).

murine skin [5] = experiment: Desmosome density and desmoglein-1 staining in lower stratum corneum; type: in vivo, mouse; conditions: for density of desmosomes in the lower stratum corneum and at the stratum corneum-stratum granulosum interface: inhibitor-treated vs vehicle sites
Description: (§1) Ultrastructural methods: Freshly obtained biopsies from mouse skin were fixed directly in modified Karnovsky's fixative, postfixed with reduced osmium tetroxide (OSO4) and then imbedded in an Epon-epoxy mixture. For visualization of lipid-enriched, lamellar bilayer structures, some samples were post fixed in ruthenium tetroxide (RuO4). Sections were cut on a Reichert Ultracut E microtome, counterstained with uranyl acetate and lead citrate, and viewed in a Zeiss 10 CR electron microscope, operated at 60 kV.
Immunofluorescence Staining: Hairless mouse skin was excised with a 6 mm punch biopsy, and the subcutaneous fat was removed. Tissue sections were incubated for 1 hour in blocking buffer (1% bovine serum albumin, 0.1% cold water fish gelatin in phosphate buffered saline (PBS)), and were then incubated for 1 hour further at room temperature with 1:500 dilution of polyclonal rabbit anti-mouse desmoglein 1 antibody (gift of Dr. John Stanley, University of Pennsylvania) diluted in blocking buffer. The tissue was then washed with blocking buffer and incubated one hour at room temperature with fluoroscein, isothiocyanate-conjugated, goat anti-rabbit IgG antibody (DAKO, Carpinteria, Calif., USA), diluted in blocking buffer. Either preincubation of DSG 1 antibody with DSG 1-recombinant protein (gift of Dr. Masayuki Amagai, Keio University, Tokyo, Japan), or omission of the DSG 1 primary antibody eliminated specific staining.

murine skin [6] = conditions: 4 mg/mL topical, shown previously; cited from earlier work
NHE1 antiporter = biological target: T1, NHE1 antiporter (Homo sapiens, UniProt P19634); experiment: Intracellular pH (BCECF) and recovery from acid load in cultured human keratinocytes; type: cell-based
T1 construct: endogenous in cells; host or cells: cultured human keratinocytes (CHK)
T1 sequence (P19634 whole entry): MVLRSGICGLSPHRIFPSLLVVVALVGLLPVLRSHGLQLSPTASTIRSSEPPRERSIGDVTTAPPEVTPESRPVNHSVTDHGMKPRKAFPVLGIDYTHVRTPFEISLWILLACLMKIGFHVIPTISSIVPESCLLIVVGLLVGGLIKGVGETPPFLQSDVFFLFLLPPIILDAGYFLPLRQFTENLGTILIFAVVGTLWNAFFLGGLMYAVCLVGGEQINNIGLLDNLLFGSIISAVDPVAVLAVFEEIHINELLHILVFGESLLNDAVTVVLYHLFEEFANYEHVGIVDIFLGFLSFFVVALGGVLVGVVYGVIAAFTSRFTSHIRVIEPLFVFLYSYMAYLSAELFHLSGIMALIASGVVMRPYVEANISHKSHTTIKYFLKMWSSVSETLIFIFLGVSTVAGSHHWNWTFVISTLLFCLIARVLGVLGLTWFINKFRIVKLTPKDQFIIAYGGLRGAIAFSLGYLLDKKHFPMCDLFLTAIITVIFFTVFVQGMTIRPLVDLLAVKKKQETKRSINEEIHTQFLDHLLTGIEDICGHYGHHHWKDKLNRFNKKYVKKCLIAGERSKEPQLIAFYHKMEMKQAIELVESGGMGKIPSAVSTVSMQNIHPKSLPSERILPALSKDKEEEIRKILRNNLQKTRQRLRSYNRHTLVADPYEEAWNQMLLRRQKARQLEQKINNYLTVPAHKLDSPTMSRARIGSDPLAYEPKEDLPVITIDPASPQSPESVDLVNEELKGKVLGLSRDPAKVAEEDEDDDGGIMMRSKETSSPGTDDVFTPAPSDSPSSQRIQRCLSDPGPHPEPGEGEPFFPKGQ
Method: Assessment of Intracellular pH: Keratinocytes were plated on glass coverslips and grown in Cascade 154 medium containing 0.07 mM Ca^2+. The coverslips were incubated in 145 μM BCECF-AM ester at room temperature for 5 minutes, then rinsed for 30 minutes in buffer containing either 28 mM HEPES, 136 mM NaCl, 5 mM KCl, 0.07 mM CaCl2 and 10 mM glucose, pH 7.4 or Ringer solution (136 mM NaCl, 5 mM KCl, 0.03 mM Ca2+, 28 mM TES, 14 mM Na HCO3, NaOH to adjust the pH to 7.4, and 10 mM glucose (pH 7.4, 330 mOsm)). BCECF-AM-ester is membrane permeable; once inside cells it is de esterified by endogenous […], trapping flourescently-active, acidic BCECF inside the cells. The BCECF-loaded cells were placed in a superfusion chamber mounted on a inverted microscope (Nikon). The keratinocytes were superfused with one of the two solutions, and baseline intracellular pH was monitored constantly using a ratiometric method (Paradiio et al (1987) Am J. Physiol. 253:C30-6). […] The resultant fluorescence (at 530 nm) from each stimulating wavelength was measured with a CCD camera (Hamamatsu) digitally ratioed, and stored using a software program (Fluor, Universal Imaging Co., West Chester, Pa.). Whereas fluorescence emission at 440 nm excitation remains constant, indicative of dye concentration, emission from 490 nm varies proportionally with changes of intracellular pH. […]

hairless mice [7] = experiment: Barrier recovery (TEWL) after tape-stripping; conditions: for barrier recovery after tape-stripping: NHE1 inhibitors, general statement
Method: Permeability Barrier Studies: Normal hairless mice were treated topically twice a daily for three days with BPB (4 mg/mL) or MJ33 (4 mg/mL) both in propylene glycol:ethanol (7:3 v/v) vehicle, or the vehicle alone on an area of 5-6 cm on the backs and flanks as described previously (Mao-Qiang, M., et al., J. Lipid Res. 36:1926-35 (1995)). […] The acidification experiments were performed with 10 mM HEPES-buffer, adjusted to either pH 5.5 or pH 7.4 as follows: One flank of anesthetized mice was immersed on a mesh netting, as described previously (Lee, S. H., et al., J. Clin. Invest. 89:530-8 (1992)). The mice were anesthetized with chloral hydrate (Morton Grove Pharmaceuticals, Morton Grove, Ill., USA). After 3 hours immersion at 37° C., the mice were removed, and the remaining buffer was gently blotted off. After 15 minutes, barrier function was determined by measurement of transepidermal water loss(TEWL) with an electrolytic water analyzer (MEECO®, Warrington, Pa.). […] Individually tested sites were covered with Hilltop Chambers (HtC, nominal volume 200 mL), which were reapplied following each indvidual measurement.
as §3
Hairless mice were tape stripped to TEWL of 7-9 g/m^2/h. […] Control areas were covered with Hilltop Chambers containing 10 mM HEPES buffer adjusted to pH 7.4 or pH 5.5 as appropriate. TEWL was measured at 0, 2, 5, and 24 hours post tape-strip. The results are reported as percent barrier recovery from the initial induced defect.

murine skin [8] = experiment: Stratum corneum pH after tape-stripping with buffers and NHE1 inhibitors; type: in vivo, mouse
Method: The acidification experiments were performed with 10 mM HEPES-buffer, adjusted to either pH 5.5 or pH 7.4 as follows: One flank of anesthetized mice was immersed on a mesh netting, as described previously (Lee, S. H., et al., J. Clin. Invest. 89:530-8 (1992)). […] After 3 hours immersion at 37° C., the mice were removed, and the remaining buffer was gently blotted off. After 15 minutes, barrier function was determined by measurement of transepidermal water loss(TEWL) with an electrolytic water analyzer (MEECO®, Warrington, Pa.). Surface pH was measured with a flat, glass surface electrode from Mettler-Toledo (Giessen, Germany), attached to a pH meter (Skin pH Meter PH 900, Courage& Khazaka, Cologne, Germany). Individually tested sites were covered with Hilltop Chambers (HtC, nominal volume 200 mL), which were reapplied following each indvidual measurement.
as §3

mouse skin = experiment: Electron microscopy of lamellar bodies and extracellular lipid processing; type: in vivo
Description: as §1

[9] = fatty acid co-applied with BPB, three days
[10] = fifth strip, fatty acid co-applied with BPB
[11] = five hours post tape-strip, in pH 7.4 buffer, buffer alone 38%
[12] = two hours post tape-strip, in pH 7.4 buffer, buffer alone 21%

Structure (SMILES): O=C(CBr)c1ccc(Br)cc1 [BPB, bromphenacyl bromide]
pH of the stratum corneum (hairless mice [1]; BPB alone, comparison with LA co-application): 6.28+/−0.1
pH of the stratum corneum (hairless mice [1]; BPB alone, comparison with PA co-application): 5.92+/−0.05
pH of the stratum corneum (hairless mice [1]; BPB alone, comparison with SA co-application): 6.17+/−0.08
surface pH of BPB treated sites before buffer exposure (hairless mice [1]; BPB three days, before buffer): ~5.95 pH
surface pH (hairless mice [1]; BPB three days, then neutral buffer (pH 7.4) three hours): ~6.41 pH
pH of the skin (hairless mice [1]; after one day, 4 mg/mL topical twice daily): ~6.0 pH
average pH of treated sites (hairless mice [1]; day 3, 4 mg/mL topical twice daily): ~6.4 pH
TEWL before buffer exposure (hairless mice [2]; BPB three days, before neutral buffer): about 10 g/m^2/h
barrier function (hairless mice [2]; BPB three days, then acidic buffer three hours): remained unchanged
TEWL (hairless mice [2]; BPB three days, then neutral buffer three hours): about 18 g/m^2/h
TEWL (hairless mice [2]; day three of treatment): ~11 g/m^2/h
TEWL (hairless mice [2]; day two of treatment): ~6 g/m^2/h
TEWL after tape strippings (hairless mice [3]; BPB treated sites then acidic buffer, three sequential strippings): less than 30 g/m^2/h
TEWL after tape strippings (hairless mice [3]; BPB treated sites then neutral buffer, three sequential strippings): more than 60 g/m^2/h
TEWL after tape strips (hairless mice [3]; fifth strip, BPB alone (Example 5)): 80-100 g/m^2/ h
TEWL after tape stripping (hairless mice [3]; fifth strip, after three days of treatment (Example 1)): ~90 g/m^2/h
TEWL after tape stripping (hairless mice [3]; second strip, after three days of treatment): ~20 g/m^2/h
protein removed (hairless mice [4]; after five strips (Example 1)): 85-90 μg/cm^2
protein removed per D-Squame stripping (hairless mice [4]; first strip, after three days of treatment): about 20 μg/cm^2
protein lost (hairless mice [4]; five sequential tape-strippings, BPB alone (Example 5)): about 125 μg protein/cm^2
density of desmosomes in the lower stratum corneum and at the stratum corneum-stratum granulosum interface (murine skin [5]): dramatic reduction
density of DSG1 positive clusters (murine skin [5]; laser confocal microscopy, lower stratum corneum): decline dramatically
toxicity of the doses employed (murine skin [6]): non-toxic

Structure (SMILES): CCCCCCCCCCCCCCCCCC(=O)O [stearic acid]
pH of the stratum corneum (hairless mice [1]; [9]): 5.73+/−0.09
TEWL after tape strips (hairless mice [3]; [10]): about 25 g/m^2/h
protein lost (hairless mice [4]; [10]): about 25 μg protein/cm^2

Structure (SMILES): CCCCC/C=C\C/C=C\CCCCCCCC(=O)O [linoleic acid]
pH of the stratum corneum (hairless mice [1]; [9]): 5.77+/−0.10

Structure (SMILES): CCCCCCCCCCCCCCCCOCC(COCC(F)(F)F)OP(=O)(O)OC (centres unmarked) [MJ33, 1-Hexadecyl-3-triflouroethylglycero-sn-2-phosphomethanol]
stratum corneum surface pH (hairless mice [1]; MJ33 4 mg/mL vs vehicle alone (5.60)): 5.87+/−0.06
fold increase in TEWL rates (hairless mice [2]; by day three, vs vehicle): 2-3 fold
TEWL rates (hairless mice [2]; day three, repeated applications, vehicle 2.97): 5.19+/−.81
TEWL after tape strippings (hairless mice [3]; day 3, after three consecutive tape strippings (Example 1)): ~75 g/m^2/hr
TEWL after tape strips (hairless mice [3]; three sequential tape-strippings, MJ33 alone (Example 5)): ~75 g/m^2/h
protein lost (hairless mice [4]; day 3, after three consecutive tape-strippings (Example 1)): over 50 μg protein/cm^2
protein lost (hairless mice [4]; three sequential strippings, MJ33 alone (Example 5)): about 50 μg protein/cm^2
density of desmosomes in the lower stratum corneum and at the stratum corneum-stratum granulosum interface (murine skin [5]): dramatic reduction
toxicity of the doses employed (murine skin [6]): non-toxic

Structure (SMILES): CCCCCCCCCCCCCCCC(=O)O [palmitic acid]
pH of the stratum corneum (hairless mice [1]; [9]): 5.40+/−0.14
TEWL after tape strips (hairless mice [3]; [10]): 55-60 g/m^2/h
TEWL after tape strips (hairless mice [3]; three sequential tape-strippings, fatty acid co-applied with MJ33): 30-35 g/m^2/h
protein lost (hairless mice [4]; [10]): about 40 μg protein/cm^2
protein lost (hairless mice [4]; three strippings, fatty acid co-applied with MJ33): about 30 μg/cm^2

Structure (SMILES): N=C(N)NC(=O)c1nc(Cl)c(N)nc1N [amiloride, N-Amido-3,5-diamino-6-chloropyrazinecarboxamide]
effect after wash out period (NHE1 antiporter; FIG. 1 (D), recovery from acid load after wash out): non-permanent, non-toxic effect
barrier recovery after tape-stripping (hairless mice [7]): delayed barrier recovery
percent barrier recovery (TEWL rate less than initial induced rate) (hairless mice [7]; [11]): about 25%
percent barrier recovery (TEWL rate less than initial induced rate) (hairless mice [7]; [12]): about 12%

intracellular pH (NHE1 antiporter; 1.5 μM for 16 hours, from pH 7.05): 6.90 pH
Structure (SMILES): CS(=O)(=O)c1cc(C(=O)NC(=N)N)ccc1N1CCCCC1 [HOE694, 3-methylsulfonyl-4-piperidino-benzoylguanidinemethanesulfonate]
stratum corneum pH relative to initial post-tape-strip value (murine skin [8]; 2 hours post-tape-strip, pH 5.5 HEPES buffer): more than 0.1 pH units
stratum corneum pH relative to initial post-tape-strip value (murine skin [8]; 5 hours post-tape-strip, pH 5.5 HEPES buffer): more than 0.05 pH units
stratum corneum pH relative to initial post-tape-strip value (murine skin [8]; five hours post-tape-strip, pH 7.4 buffer): persisted and even increased
initial post-tape-strip pH value (murine skin [8]; in pH 5.5 buffer, vs pH 5.5 buffer alone): increased significantly
stratum corneum pH above that of skin exposed to pH 7.4 buffer alone (murine skin [8]; two hours post-tape-strip, in pH 7.4 buffer): ~0.05 pH units
stratum corneum pH increase over initial post-tape-strip value (murine skin [8]; two hours post-tape-strip, pH 7.4 buffer): > 0.1 pH units
lamellar body formation and extracellular processing of secreted lipids (mouse skin; in pH 5.5 buffer): appeared normal
extracellular processing of secreted lipids (mouse skin; in pH 7.4 buffer): defective
lamellar body formation and secretion (mouse skin; in pH 7.4 buffer): undisturbed
percent barrier recovery (TEWL rate less than initial induced rate) (hairless mice [7]; 2 hours post tape-strip, in pH 5.5 buffer, buffer alone 28%): 25%
percent barrier recovery (TEWL rate less than initial induced rate) (hairless mice [7]; 5 hours post tape-strip, in pH 5.5 buffer): 38%
percent barrier recovery (TEWL rate less than initial induced rate) (hairless mice [7]; 24 hours post tape-strip, in pH 5.5 buffer): 75%
percent barrier recovery (TEWL rate less than initial induced rate) (hairless mice [7]; 24 hours post tape-strip, in pH 7.4 buffer, buffer alone 75%): about 45%
barrier recovery after tape-stripping (hairless mice [7]): delayed barrier recovery
percent barrier recovery (TEWL rate less than initial induced rate) (hairless mice [7]; [11]): 23%
percent barrier recovery (TEWL rate less than initial induced rate) (hairless mice [7]; [12]): about 12%
